Data reported in patent US6096771A, “Isoxazole derivatives” (Sankyo Company, Limited, priority 1994, dated 2000).
Counter-ions that a name gives are not always drawn.

Key:
[1] = target: T1, B-type monoamine oxidase (Mus musculus, UniProt Q8BW75); test: Monoamine oxidase-inhibitory activity, B-type (crude mitochondria of mouse brain, 14C-2-phenylethylamine substrate); format: biochemical; conditions: 14C-PEA 20 μM, pH 7.4, 38° C.
T1 sequence (Q8BW75 1-520): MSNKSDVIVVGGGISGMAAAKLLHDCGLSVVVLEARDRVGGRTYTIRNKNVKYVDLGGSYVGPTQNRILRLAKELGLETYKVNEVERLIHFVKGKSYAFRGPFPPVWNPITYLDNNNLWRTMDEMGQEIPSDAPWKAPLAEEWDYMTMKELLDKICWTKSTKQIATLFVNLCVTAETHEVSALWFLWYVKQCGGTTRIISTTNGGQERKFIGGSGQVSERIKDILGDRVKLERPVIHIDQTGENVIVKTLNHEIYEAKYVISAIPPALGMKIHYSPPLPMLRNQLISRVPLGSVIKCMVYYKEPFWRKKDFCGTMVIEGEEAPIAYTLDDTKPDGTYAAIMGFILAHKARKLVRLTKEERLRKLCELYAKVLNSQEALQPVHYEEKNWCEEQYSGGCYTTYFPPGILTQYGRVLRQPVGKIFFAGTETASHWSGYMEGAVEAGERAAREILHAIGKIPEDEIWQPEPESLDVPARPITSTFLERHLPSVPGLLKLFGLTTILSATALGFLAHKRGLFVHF

[2] = Farmaco, Ed. Sci., 23, 1081 (1968); 24, 440 (1969); cited from earlier work
[3] = Farmaco, Ed. Sci., 23, 1081 (1968); 24, 440 (1969); cited from earlier work; remark: listed apart in the source

Row | SMILES | IC50 ([1]; 20 min preincubation) | other results
1 | NCCOc1noc2ncccc12 [10(e), 3-(2-Aminoethoxy)pyrido[3,2-d]isoxazole Dihydrochloride] | 10.2 nM | –
2 | NCCOc1noc2ncccc12 [10(f), 3-(2-Aminoethoxy)pyrido[3,2-d]isoxazole Hydrochloride] | 13.5 nM | –
3 | CNCCOc1noc2ccccc12 [Compound A, 3(2-N-Methylamino)ethoxy-1,2-benzisoxazole, reference compound] | – | IC50 ([1]; reference compounds A and B): 2350 nM
4 | CN(C)CCOc1noc2ccccc12 [Compound B, 3(2-N,NDimethylamino)ethoxy-1,2-benzisoxazole] | – | anti-inflammatory effects [2]: possesses anti-inflammatory effects; IC50 ([1]; reference compounds A and B): 4700 nM; local (infiltration) anaesthetic effect [3]: local (infiltration) anaesthetic effect
5 | NCCOc1noc2ccc(Cl)cc12 [Example 1, 3-(2-Aminoethoxy)-5-chloro-1,2-benzisoxazole hydrochloride] | 0.37 nM | –
6 | NCCOc1noc2ccccc12 [Example 2, 3-(2-Aminoethoxy)-1,2-benzisoxazole hydrochloride] | 1.85 nM | –
7 | NCCOc1noc2ccc(F)cc12 [Example 5, 3-(2-Aminoethoxy)-5-fluoro-1,2-benzisoxazole hydrochloride] | 1.35 nM | –
8 | COc1ccc2onc(OCCN)c2c1 [Example 6, 3-(2-Aminoethoxy)-5-methoxy-1,2-benzisoxazole hydrochloride] | 5.6 nM | –
9 | Cc1ccc2onc(OCCN)c2c1 [Example 7, 3-(2-Aminoethoxy)-5-methyl-1,2-benzisoxazole Hydrochloride] | 0.56 nM | –
10 | NCCOc1noc2ccc([N+](=O)[O-])cc12 [Example 8, 3-(2-Aminoethoxy)-5-nitro-1,2-benzisoxazole Hydrochloride] | 0.56 nM | –
11 | NCCOc1noc2c(Cl)cccc12 [Example 9, 3-(2-Aminoethoxy)-7-chloro-1,2-benzisoxazole Hydrochloride] | 20 nM | –
12 | NCCOc1noc2cc(Cl)ccc12 [Example 11, 3-(2-Aminoethoxy)-6-chloro-1,2-benzisoxazole Hydrochloride] | 2.8 nM | –
13 | NCCOc1noc2c(Cl)cc(Cl)cc12 [Example 12, 3-(2-Aminoethoxy)-5,7-dichloro-1,2-benzisoxazole Hydrochloride] | 26.5 nM | –
14 | Cc1cccc2c(OCCN)noc12 [Example 13, 3-(2-Aminoethoxy)-7-methyl-1,2-benzisoxazole Hydrochloride] | 27.5 nM | –
15 | Cc1ccc2c(OCCN)noc2c1 [Example 14, 3-(2-Aminoethoxy)-6-methyl-1,2-benzisoxazole Hydrochloride] | 21.5 nM | –
16 | NCCOc1noc2ccc(Br)cc12 [Example 15, 3-(2-Aminoethoxy)-5-bromo-1,2-benzisoxazole Hydrochloride] | 0.32 nM | –
17 | Cc1c(F)ccc2onc(OCCN)c12 [Example 17, 3-(2-Aminoethoxy)-5-fluoro-4-methyl-1,2-benzisoxazole Hydrochloride] | 4.2 nM | –
18 | CSc1c(F)ccc2onc(OCCN)c12 [Example 21, 3-(2-Aminoethoxy)-5-fluoro-4-methylthio-1,2-benzisoxazole Hydrochloride] | 4.7 nM | –
19 | N#Cc1cccc2onc(OCCN)c12 [Example 24, 3-(2-Aminoethoxy)-4-cyano-1,2-benzisoxazole hydrochloride] | 6.8 nM | –
20 | NCCSc1noc2ccc(F)cc12 [Example 26, 3-(2-Aminoethylthio)-5-fluoro-1,2-benzisoxazole hydrochloride] | 2.7 nM | –
21 | COc1ccc2onc(SCCN)c2c1 [Example 33, 3-(2-Aminoethylthio)-5-methoxy-1,2-benzisoxazole hydrochloride] | 4.5 nM | –
22 | Cc1ccc2onc(SCCN)c2c1 [Example 34, 3-(2-Aminoethylthio)-5-methyl-1,2-benzisoxazole hydrochloride] | 2.2 nM | –
23 | NCCSc1noc2ccc([N+](=O)[O-])cc12 [Example 35, 3-(2-Aminoethylthio)-5-nitro-1,2-benzisoxazole hydrochloride] | 9 nM | –
24 | NCCSc1noc2ccc(Cl)cc12 [Example 38, 3-(2-Aminoethylthio)-5-chloro-1,2-benzisoxazole hydrochloride] | 2.95 nM | –
25 | COC(=O)c1ccc2onc(OCCN)c2c1 [Example 42, 3-(2-Aminoethoxy)-5-methoxycarbonyl-1,2-benzisoxazole hydrochloride] | 18 nM | –
26 | NCCOc1noc2ccc(OC(F)F)cc12 [Example 44, 3-(2-Aminoethoxy)-5-difluoromethoxy-1,2-benzisoxazole hydrochloride] | 6 nM | –
27 | Cc1cc(Cl)cc2c(SCCN)noc12 [Example 56, 3-(2-Aminoethylthio)-5-chloro-7-methyl-1,2-benzisoxazole hydrochloride] | 6.6 nM | –
